Laboratory results from ChEMBL document CHEMBL5226298, “Chemoenzymatic Synthesis of 5-Methylpsilocybin: A Tryptamine with Potential Psychedelic Activity” (2021).

Columns and labels:
Mus musculus [1] = assay: Induction of psychedelics activity in mouse assessed as head-twitch response at upto 10 mg/kg, ip measured for 30 min; assay type: functional; details: 0.5 h
Mus musculus [2] = assay: Induction of psychedelics activity in C57BL/6J mouse assessed as head-twitch response at upto 10 mg/kg, ip measured for 30 min; assay type: functional; details: 0.5 h

Row | SMILES | ED50 (Mus musculus [1]) [mg/kg] | ED50 (Mus musculus [2]) [µmol/kg]
1 | Cc1ccc2[nH]cc(CCN(C)C)c2c1OP(=O)(O)O | 1.23 | –
2 | CN(C)CCc1c[nH]c2ccccc12 [N,N-DIMETHYLTRYPTAMINE] | – | 5.05
